Activity calls are given as the source filed them.
Columns and labels:
[1] = HEp-2 cell cytotoxicity, dose response, cytotoxicity control for RSV inhibitor project, HTS (AID 2410); assay type: functional; conditions: human respiratory syncytial virus
Protein skinhead-1 = biological target: T1, Protein skinhead-1 (Caenorhabditis elegans, UniProt P34707); assay type: functional
T1 sequence (P34707 whole entry): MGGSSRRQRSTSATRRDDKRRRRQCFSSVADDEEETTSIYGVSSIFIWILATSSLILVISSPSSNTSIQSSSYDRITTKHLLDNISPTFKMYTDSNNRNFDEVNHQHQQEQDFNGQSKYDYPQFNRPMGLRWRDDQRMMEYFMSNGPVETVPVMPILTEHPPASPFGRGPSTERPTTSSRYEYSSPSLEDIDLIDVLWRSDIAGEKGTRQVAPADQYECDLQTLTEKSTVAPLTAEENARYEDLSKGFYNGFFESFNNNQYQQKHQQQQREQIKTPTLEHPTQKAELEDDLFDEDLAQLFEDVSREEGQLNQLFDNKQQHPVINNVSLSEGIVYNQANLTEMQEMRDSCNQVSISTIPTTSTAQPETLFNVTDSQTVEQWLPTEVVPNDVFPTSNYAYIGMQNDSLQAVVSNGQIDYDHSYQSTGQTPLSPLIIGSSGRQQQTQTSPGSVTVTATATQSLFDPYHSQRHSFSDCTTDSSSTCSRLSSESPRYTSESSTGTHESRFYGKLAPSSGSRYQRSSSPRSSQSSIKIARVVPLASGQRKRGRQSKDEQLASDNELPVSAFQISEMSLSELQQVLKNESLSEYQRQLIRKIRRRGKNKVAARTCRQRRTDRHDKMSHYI

[2] = microbe, parasite or virus in culture; assay type: functional; conditions: Mycobacterium tuberculosis
[3] = tested on: Streptococcus sp. 'group A'; experiment: growth inhibition of control SK(-) GAS strain, dose response, counter-screen for streptokinase expression inhibitor project, luminescence, kanamycin, BacTiterGlo, confirmation (AID 1900); assay type: functional, organism-based
Vero [4] = experiment: cells; assay type: functional, cell-based; conditions: Chlorocebus sabaeus
H4 = experiment: Luminescence Cell-Based Dose Response HTS to Identify Activators of 5'UTR Stem-Loop Driven Prion Protein mRNA Translation in H4 Neuroglioblastoma Cells. [Related pubchem assays: 1829 (Project Summary), 1814 (Primary HTS)]; assay type: functional; conditions: Homo sapiens
[5] = Luminescence Cell-Based Dose Confirmation HTS to Identify Activators of 5'UTR Stem-Loop Driven Alpha-Synuclein mRNA Translation in H4 Neuroglioblastoma Cells. [Related pubchem assays: 1829 (Project Summary), 1814 (Primary HTS)]; assay type: functional
Vero [6] = experiment: cells; assay type: functional; conditions: Chlorocebus sabaeus
Streptococcus = experiment: Group A Streptococcus viability loss, dose response, counter-screen for streptokinase expression inhibitor project, luminescence, BacTiterGlo (AID 1915); assay type: functional, organism-based;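 further: potency for reduction of bacterial viability or growth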
[7] = Luminescence Cell-Based Dose Response HTS to Identify Activators of Luciferase Translation or Activity in H4 […] Cells. [Related pubchem assays: 1829 (Project Summary), 1814 (Primary HTS)]; assay type: functional
Streptokinase A = biological target: T2, Streptokinase A (Streptococcus pyogenes serotype M1, UniProt P10520); experiment: S. pyogenes streptokinase expression inhibitors, potency, dose response, plasminogen activation absorbance, OD405 (AID 1914); assay type: functional, Streptococcus pyogenes M1 GAS;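 further: secreted streptokinase activity via plasminogen activation per viability signal from cell pellet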
T2 sequence (P10520 whole entry): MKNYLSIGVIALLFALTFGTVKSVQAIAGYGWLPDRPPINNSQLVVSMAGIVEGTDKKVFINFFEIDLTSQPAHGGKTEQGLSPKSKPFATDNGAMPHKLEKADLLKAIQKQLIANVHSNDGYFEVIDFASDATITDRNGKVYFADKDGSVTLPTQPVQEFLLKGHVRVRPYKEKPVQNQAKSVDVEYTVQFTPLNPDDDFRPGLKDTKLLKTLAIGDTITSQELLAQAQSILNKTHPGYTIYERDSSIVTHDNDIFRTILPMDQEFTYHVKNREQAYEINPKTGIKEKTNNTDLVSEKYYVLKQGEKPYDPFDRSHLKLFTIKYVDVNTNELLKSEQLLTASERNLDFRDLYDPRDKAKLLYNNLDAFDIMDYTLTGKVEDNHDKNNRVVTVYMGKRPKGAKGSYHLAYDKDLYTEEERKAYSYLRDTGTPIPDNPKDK

[8] = biological target: Induced myeloid leukemia cell differentiation protein Mcl-1 (Homo sapiens, UniProt Q07820); assay type: functional
Induced myeloid leukemia cell differentiation protein Mcl-1, sequence (Q07820 whole entry): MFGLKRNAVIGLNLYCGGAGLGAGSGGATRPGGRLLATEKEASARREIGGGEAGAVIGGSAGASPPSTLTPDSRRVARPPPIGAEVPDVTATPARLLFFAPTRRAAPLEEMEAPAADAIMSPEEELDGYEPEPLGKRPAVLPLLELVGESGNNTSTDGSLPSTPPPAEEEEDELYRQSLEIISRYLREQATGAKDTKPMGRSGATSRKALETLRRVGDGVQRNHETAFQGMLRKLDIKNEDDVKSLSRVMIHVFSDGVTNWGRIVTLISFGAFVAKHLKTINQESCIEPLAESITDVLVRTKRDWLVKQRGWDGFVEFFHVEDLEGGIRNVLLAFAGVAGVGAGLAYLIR

Leucine aminopeptidase = biological target: T3, Leucine aminopeptidase (Plasmodium falciparum 3D7, UniProt Q8IL11); experiment: P. falciparum M17LAP inhibitors, primary screen, biochemical, fluorogenic H-Leu-NHMec substrate, 1536-well (AID 1619); assay type: functional
T3 sequence (Q8IL11 whole entry): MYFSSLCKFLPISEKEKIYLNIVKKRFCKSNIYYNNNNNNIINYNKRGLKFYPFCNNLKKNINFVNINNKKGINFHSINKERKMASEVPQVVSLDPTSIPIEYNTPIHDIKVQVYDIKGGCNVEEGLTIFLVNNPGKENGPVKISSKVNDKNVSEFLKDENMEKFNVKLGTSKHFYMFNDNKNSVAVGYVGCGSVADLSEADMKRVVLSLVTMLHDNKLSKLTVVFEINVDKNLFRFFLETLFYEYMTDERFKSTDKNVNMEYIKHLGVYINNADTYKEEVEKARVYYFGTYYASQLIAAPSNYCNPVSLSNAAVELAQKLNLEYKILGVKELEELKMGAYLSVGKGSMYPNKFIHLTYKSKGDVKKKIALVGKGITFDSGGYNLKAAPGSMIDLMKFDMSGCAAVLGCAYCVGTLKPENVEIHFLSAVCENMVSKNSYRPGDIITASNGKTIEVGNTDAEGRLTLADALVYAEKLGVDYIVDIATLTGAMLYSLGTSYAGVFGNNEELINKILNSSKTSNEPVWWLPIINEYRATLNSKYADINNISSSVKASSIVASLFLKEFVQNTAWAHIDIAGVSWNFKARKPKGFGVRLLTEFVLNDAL

Genome polyprotein = Genome polyprotein (dengue virus type 2, UniProt P29990); experiment: Dengue-2 NS5 methyltransferase inhibitors, primary screen, biochemical, confirmation dose response (AID 588689); assay type: functional
Genome polyprotein, sequence (P29990 2492-3391 limits assumed): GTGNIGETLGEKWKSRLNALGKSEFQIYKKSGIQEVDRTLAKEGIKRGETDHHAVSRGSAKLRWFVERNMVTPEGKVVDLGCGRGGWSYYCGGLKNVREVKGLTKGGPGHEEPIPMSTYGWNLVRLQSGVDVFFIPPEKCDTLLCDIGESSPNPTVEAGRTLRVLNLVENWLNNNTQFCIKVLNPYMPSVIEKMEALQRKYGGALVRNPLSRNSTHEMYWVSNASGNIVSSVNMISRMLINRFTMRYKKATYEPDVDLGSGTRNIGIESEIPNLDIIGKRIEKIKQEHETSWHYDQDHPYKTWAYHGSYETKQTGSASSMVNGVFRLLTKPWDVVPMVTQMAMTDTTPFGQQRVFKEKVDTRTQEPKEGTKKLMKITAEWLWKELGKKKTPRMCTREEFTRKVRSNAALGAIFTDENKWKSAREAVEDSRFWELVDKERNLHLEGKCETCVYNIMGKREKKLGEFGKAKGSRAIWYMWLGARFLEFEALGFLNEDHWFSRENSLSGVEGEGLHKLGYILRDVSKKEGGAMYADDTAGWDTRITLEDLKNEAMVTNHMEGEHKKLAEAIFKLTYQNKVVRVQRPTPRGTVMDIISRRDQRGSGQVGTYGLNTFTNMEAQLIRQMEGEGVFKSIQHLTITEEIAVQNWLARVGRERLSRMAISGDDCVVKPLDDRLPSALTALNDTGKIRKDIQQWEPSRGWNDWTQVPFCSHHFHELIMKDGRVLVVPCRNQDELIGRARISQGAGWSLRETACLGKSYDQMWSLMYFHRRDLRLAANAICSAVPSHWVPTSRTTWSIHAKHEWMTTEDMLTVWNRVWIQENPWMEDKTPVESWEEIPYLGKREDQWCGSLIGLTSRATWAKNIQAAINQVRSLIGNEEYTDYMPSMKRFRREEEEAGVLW

Large T antigen = Large T antigen (Simian virus 40, UniProt P03070); assay type: functional, Betapolyomavirus macacae;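 further: Confirmatory-stage PubChem screen for compounds that inhibit SV40 T antigen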
Large T antigen, sequence (P03070 whole entry): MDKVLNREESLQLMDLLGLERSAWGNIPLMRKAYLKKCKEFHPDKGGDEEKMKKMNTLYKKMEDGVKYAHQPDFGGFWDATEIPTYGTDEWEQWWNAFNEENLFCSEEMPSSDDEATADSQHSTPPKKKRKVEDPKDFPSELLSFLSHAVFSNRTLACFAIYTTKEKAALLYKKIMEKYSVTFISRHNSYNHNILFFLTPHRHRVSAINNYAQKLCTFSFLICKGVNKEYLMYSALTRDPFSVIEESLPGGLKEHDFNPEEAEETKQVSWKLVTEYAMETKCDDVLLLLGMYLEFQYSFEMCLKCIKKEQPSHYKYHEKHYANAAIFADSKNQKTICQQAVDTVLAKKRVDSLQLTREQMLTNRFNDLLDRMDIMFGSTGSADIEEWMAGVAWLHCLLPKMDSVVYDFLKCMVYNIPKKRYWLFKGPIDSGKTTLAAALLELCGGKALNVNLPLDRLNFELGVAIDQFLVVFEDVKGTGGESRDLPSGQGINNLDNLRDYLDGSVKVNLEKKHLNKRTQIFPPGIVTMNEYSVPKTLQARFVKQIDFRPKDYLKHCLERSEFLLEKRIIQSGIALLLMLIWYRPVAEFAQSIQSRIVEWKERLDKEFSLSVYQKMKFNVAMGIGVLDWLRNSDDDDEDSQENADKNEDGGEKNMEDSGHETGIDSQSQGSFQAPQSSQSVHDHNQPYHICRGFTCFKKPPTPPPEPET

[9] = P. falciparum Dd2 growth inhibitors, dose response, SYBR Green, cherry-picked samples (AID 1159567); assay type: functional, cell-based

CCN(c1ccccc1)S(=O)(=O)c1cccc(C(=O)Nc2ccc(C)cn2)c1
CC50 [1]: 30.3 µM (active) | IC50 (Protein skinhead-1): > 100 µM (inactive)

CCn1c(SCC(=O)Nc2nc3ccc(C)cc3s2)nc2c(c1=O)SC(C)C2 (centres undefined)
CC50 [2]: > 40 µM (active)

O=C(CSc1nnnn1C1CCCCC1)Nc1nc2c(s1)CCCC2
CC50 [2]: > 40 µM (active)

CC1CC(C)CN(Cc2nc(N)nc(Nc3ccc4ccccc4c3)n2)C1 (centres undefined)
EC50 [3]: > 150 µM (not active) | IC50 (Vero [4]): > 25 µM (active) | EC50 (H4): > 120 µM (not active) | EC50 [5]: > 60 µM (not active) | CC50 (Vero [6]): 14.1 µM (active) | EC50 (Streptococcus): > 150 µM (not active) | EC50 [7]: 12.9 µM (active) | EC50 (Streptokinase A): > 150 µM (not active)

O=C(/C=C\c1ccco1)c1ccc(NC(=O)c2ccco2)cc1
IC50 [8]: 2.78 µM (active)

Cc1c(Nc2nc3ccccc3nc2NS(=O)(=O)c2ccccc2)c(=O)n(-c2ccccc2)n1C
IC50 (Leucine aminopeptidase): 68.1 µM (active)

COc1ccc(OC)c(NC(=O)[C@H]2CC=CC[C@H]2C(=O)O)c1
IC50 (Leucine aminopeptidase): 18.5 µM (active)

COc1ccc(OC)c(C(=O)C2COC(=O)C2)c1 (centres undefined)
IC50 (Protein skinhead-1): > 100 µM (inactive)

O=C(Nc1ccc(Cl)c(Cl)c1)c1ccccc1
IC50 (Protein skinhead-1): > 100 µM (inactive)

CCCOC(=O)c1c(NC(=O)C2C3C=CC(C3)C2C(=O)O)sc2c1CCC(C)C2 (centres undefined)
IC50 (Genome polyprotein): 50.3 µM (active)

CN(C)C(S)=Nc1ccc(N2CCOCC2)cc1
IC50 (Large T antigen): 11 µM (active)

Nc1nc2c(s1)C(=O)CC(c1ccccc1)C2 (centres undefined)
IC50 (Leucine aminopeptidase): 58.8 µM (active)

Nc1ccc2c(c1)sc1ccccc12
IC50 (Protein skinhead-1): 29 µM (active)

COc1ccc2c3c([nH]c2c1)[C@@H](CO)N(Cc1ccc(Cl)cc1)CC31CCN(Cc2nccs2)CC1
AC50 [9]: 4.65 µM (active)

CC(=O)c1ccc(OCCCC(=O)n2nnc3ccccc32)cc1
IC50 (Leucine aminopeptidase): 61.9 µM (active)

Nc1nc(O)c2c(n1)N=C1C(=C(O)c3ccccc31)C2c1cccc2ccccc12 (centres undefined)
IC50 [8]: 3.73 µM (active)

O=C(c1cnn(C(=O)c2ccccc2)c1)c1ccccc1O
IC50 (Leucine aminopeptidase): 72.6 µM (active)

COc1ccc(/C=C/C(=O)c2ccc(O)cc2)cc1CN1CCOCC1
IC50 (Vero [4]): 8.49 µM (active) | CC50 (Vero [6]): > 25 µM (active)

CC1=C(C#N)C(=O)N(C2CCS(=O)(=O)C2)C(=O)/C1=C\c1ccc(C)o1 (centres undefined)
IC50 (Large T antigen): 47.9 µM (active) | IC50 [8]: 1.6 µM (active)
